Test results reported in patent US20240115470A1, “METHYL-FLUORO-HYDROXYBENZOATES IN CONSUMER PRODUCTS” (GIVAUDAN SA, priority 2020, published 2024).

What was measured:
[1] = Assessment of the odor profile on smelling strips by panellists, compared to methyl salicylate; details: for Odor description: compound @10 wt % in polyethylene glycol, freshly dipped on smelling strips, compared to methyl salicylate; for odor profile compared to methyl salicylate (summary statement) / sweet aspect of odor profile: general statement in description
Experimental: A 10 wt % solution of the purified samples of Example 1 were prepared (compound @10 wt % in polyethylene glycol). The odor profile was assessed freshly dipped on smelling strips.
Panellists have been asked to provide an odor description as compared to methyl salicylate.

[2] = GC-odor threshold concentration (gas chromatograph with sniff port, panel of trained evaluators); details: for odor threshold concentration (relative): relative values, identical conditions, GC sniff port; for odor threshold concentration compared to methyl salicylate and other methyl-fluoro-hydroxybenzoates (in words): general statement in description
Experimental: Definition: The odour threshold concentration is defined as the lowest concentration of the vapour of an odorant material in the air which can be detected by smell and can be measured by standard methods known in the art.
According to standard procedures known to the person skilled in the art, threshold concentrations for volatile perfumery compounds are determined on a gas chromatograph equipped with a sniff port by a panel of trained evaluators. The lowest concentration smelled by each panelist is recorded as the individual threshold concentration expressed in ng (absolute amount of compound delivered at the sniff port).
Under identical conditions the odor threshold concentration for […]

[3] = Light floral cologne accord, replacement of 4 parts DPG; details: 4 parts DPG of 1000 replaced by the compound
From the text: The accord above represents a light floral cologne accord, suitable for fine perfumery at a dosage of e.g. 5 weight %.
Without methyl salicylate, the accord lacks initial freshness and neutrality on the top note.
Thus an accord was obtained which compensates the effects normally achieved by the presence of methyl salicylate, thus a useful compensation of methyl salicylate is obtained.

[4] = Replacement of methyl salicylate in wintergreen flavor formulation for mouthwash; details: 20 parts methyl salicylate replaced by 0.2 parts compound and 19.8 parts PG
From the text: The formulation above is a typical wintergreen type flavor suitable for the use in mouthwash products, at a dosage of, e.g. 0.3 wt %.

[5] = Replacement of methyl salicylate in wintergreen flavor formulation for toothpaste; details: 20 parts methyl salicylate replaced by 0.2 parts compound and 19.8 parts PG
From the text: The formulation above is a typical wintergreen type flavor suitable for the use in toothpaste products, at a dosage of, e.g. 1.2 wt %.

Compound | Odor description [1] | odor threshold concentration (relative) [2] | olfactory effect on accord [3] | flavor profile after replacement of methyl salicylate [4] | odor profile compared to methyl salicylate (summary statement) [1] | sweet aspect of odor profile [1] | flavor profile after replacement of methyl salicylate [5] | odor threshold concentration compared to methyl salicylate and other methyl-fluoro-hydroxybenzoates (in words) [2] | odor threshold concentration, times lower than methyl 3-fluoro-2-hydroxybenzoate ([2]; versus methyl 3-fluoro-2-hydroxybenzoate) | odor threshold concentration, times lower than methyl salicylate ([2]; versus methyl salicylate)
COC(=O)c1cc(F)ccc1O [methyl 5-fluoro-2-hydroxybenzoate, reference compound] | less sweetness, methyl salicylate character | 36 |  |  |  |  |  |  |  | 
COC(=O)c1ccccc1O [methyl 2-hydroxybenzoate, reference compound] |  | 22 | helps to reinforce the fresh, transparent, natural top note |  |  |  |  |  |  | 
COC(=O)c1cccc(F)c1O [methyl 3-fluoro-2-hydroxybenzoate, reference compound] | Medicinal note, technical | 42 |  |  |  |  |  |  |  | 
COC(=O)c1ccc(F)cc1O [methyl 4-fluoro-2-hydroxybenzoate] | Wintergreen, typical methyl salicylate | 4 | fresh and green natural effect on the top note | profile with very similar characteristics | very similar to methyl salicylate | possessing these sweet aspect | profile with very similar characteristics | surprisingly low | more than 10 times | more than 5 times
COC(=O)c1c(O)cccc1F [methyl 2-fluoro-6-hydroxybenzoate] | Sweetness, elements of wintergreen, | 1 |  |  | very similar to methyl salicylate | possessing these sweet aspect |  | surprisingly low |  | 
